According to patent US6342602B1, “Aryl or heteroaryl amides of tetrahydronaphthalene, chroman, thichroman and 1,2,3,4-tetrahydroquinolinecarboxlic acids, having an electron withdrawing substituent in the aromatic or heteroaromatic moiety, having retinoid-like biological activity” (Allergan Sales, Inc., priority 1995, dated 2002):
Where two headings read alike, the source gives them in different places.

How the values were obtained:
Assay in all cases: Ligand binding assay
[1] = biological target: T1, RARα (Homo sapiens, UniProt P10276)
T1 construct: made in house; used as extract protein
T1 sequence (P10276 1-462): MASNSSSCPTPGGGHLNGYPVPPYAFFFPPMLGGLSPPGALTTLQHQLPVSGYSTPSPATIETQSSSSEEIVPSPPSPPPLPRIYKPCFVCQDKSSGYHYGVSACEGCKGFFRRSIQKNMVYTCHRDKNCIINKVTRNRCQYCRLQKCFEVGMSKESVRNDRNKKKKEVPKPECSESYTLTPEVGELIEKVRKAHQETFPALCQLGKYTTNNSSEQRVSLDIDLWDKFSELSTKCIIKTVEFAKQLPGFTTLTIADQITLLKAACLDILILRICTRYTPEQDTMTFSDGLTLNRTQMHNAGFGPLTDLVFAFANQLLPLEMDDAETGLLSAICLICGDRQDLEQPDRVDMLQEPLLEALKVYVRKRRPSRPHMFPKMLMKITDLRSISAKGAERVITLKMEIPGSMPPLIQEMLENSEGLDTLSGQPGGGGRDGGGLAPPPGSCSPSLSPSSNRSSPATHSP
Experimental: (§1) A holoreceptor transactivation assay and a ligand binding assay which measure the ability of the compounds of the invention to bind to the several retinoid receptor subtypes, respectively, are described in published PCT Application No. WO WO93/11755 (particularly on pages 30-33 and 37-41) published on Jun. 24, 1993, the specification of which is also incorporated herein by reference. A description of the ligand binding assay is also provided below.
(§2) All binding assays were performed in a similar fashion. All six receptor types were derived from the expressed receptor type (RAR α, β, τ and RXR α, β, τ) expressed in Baculovirus. Stock solutions of all compounds were prepared as 10 mM ethanol solutions and serial dilutions carried out into 1:1 DMSO; ethanol. Assay buffers consisted of the following for all six receptor assays: 8% glycerol, 120 mM KCl, 8 mM Tris, 5 mM CHAPS 4 mM DTT and 0.24 mM PMSF, pH-7.4@room temperature.
(§3) All receptor biding assays were performed in the same manner. The final assay volume was 250 μl and contained from […] of extract protein depending on receptor being assayed along with 5 nM of [^3H) alltrans retinoic acid or 10 nM [^3H) 9-cis retinoic acid and varying concentrations of competing ligand at concentrations that ranged from 0-10^−5 M. The assays were formatted for a 96 well minitube system. Incubations were carried out at 4° C. until equilibrium was achieved. Non-specific binding was defined as that binding remaining in the presence of 1000 nM of the appropriate unlabeled retinoic acid isomer. At the end of the incubation period, 50 μl of 6.25% hydroxyapitite was added in the appropriate wash buffer. The wash buffer consisted of 100 mM KCl, 10 mM Tris and either 5 mM CHAPS (RXR α, β, τ) or 0.5% Triton X-100 (RAR α, β, τ). The mixture was vortexed and incubated for 10 minutes at 4° C., centrifuged and the supernatant removed. The hydroxyapitite was washed three more times with the appropriate wash buffer. The receptor-ligand complex was adsorbed by the hydroxyapitite. The amount of receptor-ligand complex was determined by liquid scintillation counting of hydroxyapitite pellet.
(§4) After correcting for non-specific binding, IC50 values were determined. […] The IC50 value was determined graphically from a loglogit plot of the data. The Kd values were determined by application of the ChengPrussof equation to the IC50 values, the labeled ligand concentration and the Kd of the labeled ligand.
(§5) The results of ligand binding assay are expressed in Kd numbers. (See Cheng et al. Biochemical Pharmacology Vol. 22 pp 3099-3108, expressly incorporated herein by reference.)

[2] = biological target: T2, RXRα (Homo sapiens, UniProt P19793); conditions: receptor expressed in Baculovirus; competition with [3H] retinoic acid; Cheng-Prusoff from IC50
T2 construct: made in house; used as extract protein
T2 sequence (P19793 1-462): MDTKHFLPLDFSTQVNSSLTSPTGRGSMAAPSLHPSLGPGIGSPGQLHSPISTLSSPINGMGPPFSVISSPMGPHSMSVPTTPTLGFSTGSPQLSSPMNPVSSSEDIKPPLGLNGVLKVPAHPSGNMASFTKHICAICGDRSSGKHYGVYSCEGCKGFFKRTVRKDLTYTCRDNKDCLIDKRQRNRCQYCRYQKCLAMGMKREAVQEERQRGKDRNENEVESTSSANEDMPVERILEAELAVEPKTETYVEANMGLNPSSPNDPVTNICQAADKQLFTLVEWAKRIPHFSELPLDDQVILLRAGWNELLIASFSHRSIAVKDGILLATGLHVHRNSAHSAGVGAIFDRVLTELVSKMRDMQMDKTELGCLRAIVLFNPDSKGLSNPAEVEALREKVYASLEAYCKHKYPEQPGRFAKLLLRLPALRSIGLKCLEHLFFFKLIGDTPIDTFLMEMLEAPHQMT
Experimental: as §1, §2, §3, §4, §5

[3] = biological target: T3, RXRβ (Homo sapiens, UniProt P28702); conditions: receptor expressed in Baculovirus; competition with [3H] retinoic acid; Cheng-Prusoff from IC50
T3 construct: made in house; used as extract protein
T3 sequence (P28702 1-533): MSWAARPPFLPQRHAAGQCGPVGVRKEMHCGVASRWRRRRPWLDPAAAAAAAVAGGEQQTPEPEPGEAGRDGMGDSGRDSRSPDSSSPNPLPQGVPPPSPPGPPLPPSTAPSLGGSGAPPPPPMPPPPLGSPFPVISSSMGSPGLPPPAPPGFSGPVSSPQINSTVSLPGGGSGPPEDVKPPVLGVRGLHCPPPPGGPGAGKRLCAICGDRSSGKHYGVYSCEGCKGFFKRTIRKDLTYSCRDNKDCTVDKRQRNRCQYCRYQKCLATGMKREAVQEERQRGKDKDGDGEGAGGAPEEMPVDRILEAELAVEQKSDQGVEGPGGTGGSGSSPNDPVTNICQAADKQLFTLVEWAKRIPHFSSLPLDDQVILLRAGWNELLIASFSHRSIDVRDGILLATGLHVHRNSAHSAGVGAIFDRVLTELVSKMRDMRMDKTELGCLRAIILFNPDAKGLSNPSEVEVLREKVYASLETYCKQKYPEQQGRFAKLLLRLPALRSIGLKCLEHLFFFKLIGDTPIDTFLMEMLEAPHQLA
Experimental: as §1, §2, §3, §4, §5

[4] = receptor expressed in Baculovirus, competition with [3H] retinoic acid, Cheng-Prusoff from IC50, read-out: Kd RARα

Row | Kd [1, 4] | Kd [2] | Kd [3] | Structure (SMILES) | Kd [1]
1 | 1.9 nM | > 1000 nM | > 1000 nM | CC1(C)CCC(C)(C)c2cc(C(=O)Nc3ccc(C(=O)O)c(F)c3)ccc21 [Compound 2] | –
2 | 23 nM | > 1000 nM | > 1000 nM | CC1(C)CCC(C)(C)c2cc(C(=O)Nc3ccc(C(=O)O)cc3)c(F)cc21 [Compound 4] | –
3 | 1.3 nM | > 1000 nM | > 1000 nM | CC1(C)CCC(C)(C)c2c(Br)cc(C(=O)Nc3ccc(C(=O)O)c(F)c3)cc21 [Compound 6] | –
4 | 24 nM | > 1000 nM | > 1000 nM | CC1(C)CC(C)(C)c2cc(C(=O)Nc3ccc(C(=O)O)c(F)c3)cc(Br)c2O1 [Compound 12] | –
5 | 14 nM | > 1000 nM | > 1000 nM | CC1(C)CC(C)(C)c2cc(C(=O)Nc3ccc(C(=O)O)c(F)c3)cc(C(F)(F)F)c2O1 [Compound 14] | –
6 | 52 nM | > 1000 nM | > 1000 nM | CC1(C)CC(C)(C)c2cc(C(=O)Nc3ccc(C(=O)O)c(F)c3)cc(N=[N+]=[N-])c2O1 [Compound 16, 2-Fluoro-4-[(21′,2′,4′,4′-tetramethyl-8′-azidochroman-6′-yl)carbamoyl]benzoic Acid] | –
7 | 51 nM | > 1000 nM | > 1000 nM | CC1(C)CC(C)(C)c2cc(C(=O)Nc3cc(F)c(C(=O)O)c(F)c3)cc(C(F)(F)F)c2O1 [Compound 18, 2,6-Difluoro-4-[(2′,2′,4′,4′-tetramethyl-8′-trifluoromethylchroman-6′-yl)carbamoyl]benzoic Acid] | –
8 | 16 nM | > 1000 nM | > 1000 nM | CC1(C)CC(C)(C)c2cc(C(=O)Nc3ccc(C(=O)O)c(F)c3)cc(I)c2O1 [Compound 20] | –
9 | 57 nM | > 1000 nM | > 1000 nM | Cc1cc(C(=O)Nc2ccc(C(=O)O)c(F)c2)cc2c1OC(C)(C)CC2(C)C [Compound 22] | –
10 | 15 nM | > 1000 nM | > 1000 nM | CC1(C)CCC(C)(C)c2cc(C(=S)Nc3ccc(C(=O)O)cc3)ccc21 [Compound 26] | –
11 | 162 nM | > 1000 nM | > 1000 nM | CC1(C)CC(C)(C)c2cc(C(=O)Nc3ccc(C(=O)O)c(F)c3)ccc2O1 [Compound 32] | –
12 | 9 nM | > 1000 nM | > 1000 nM | CC1(C)CCC(C)(C)c2cc(C(=O)Nc3cc(F)c(C(=O)O)c(F)c3)ccc21 [Compound 38] | –

Row | Structure (SMILES) | Kd [1, 4] | Kd [2] | Kd [3] | Kd [1]
13 | CC1(C)CCC(C)(C)c2cc(C(=O)Nc3ccc(C(=O)O)c(F)c3)c(O)cc21 [Compound 8] | 3 nM | > 1000 nM | > 1000 nM | –
14 | CC1(C)CCC(C)(C)c2c1cc(C(=O)Nc1cc(F)c(C(=O)O)c(F)c1)c(O)c2Br [Compound 36] | – | > 1000 nM | > 1000 nM | 2.3 nM
